Laboratory results taken from patent US20260297679A1, “ASSAYS FOR MONITORING INHIBITION OF RNA HELICASE DHX9” (ACCENT THERAPEUTICS, INC., priority 2023, published 2026).

How the values were obtained:
DHX9 = assay: qPCR (SYBR Green) of circular and linear RNAs in HCT116 cells after DHX9 inhibition; format: cell-based; conditions: 72 hours, FIG. 1
Description: This experiment was conducted to evaluate circular and linear formats of different mRNA in HCT116 cells after treatment with DHX9 inhibitors by Quantitative Polymerase Chain Reaction (qPCR).
HCT116 cells were obtained from ATCC (CCL-247) and were grown and assayed in McCoy's 5a growth media supplemented with 10% FBS.
The cells were plated at pre-determined cell densities in 384-well cell culture plates and incubated overnight in 37° C. at 5% CO2. In a separate plate, reference and test compounds were prepared in DMSO stock solution and serially diluted 3-fold for 10 points. Compound 7 (0.1% final DMSO concentration) was transferred to the cell plate in designated wells, and incubated 37° C. at 5% CO2 for 72 hours.
RNA was extracted from the cells using the SYBR Green Fast Advanced Cell-to-CT kit according to manufacturer's (Invitrogen) protocol, and cDNA was reverse transcribed using the High Capacity RNA-to-cDNA Kit according to the manufacturer's (Invitrogen) protocol. Using RT^2 SYBR Green ROX qPCR Mastermix (Invitrogen) and thermal cycler conditions for the QuantStudio Thermocycler, qPCR was carried out using the below custom primer sequences obtained at Integrated DNA Technologies (IDT):
Data analysis was performed by using the QuantStudio Thermocycler software to determine threshold Ct values. ΔCt for circRNA or linRNA is calculated by normalizing the target gene Ct to the GAPDH housekeeping gene Ct for each sample. The inhibition activity is calculated by the following formula, whereas: […]
ΔCts: Mean of Ct(target gene)−Mean of Ct(GAPDH) for each sample
ΔCtc: Mean of Ct(target gene)−Mean of Ct(GAPDH) for DMSO control.

human PBMCs = assay: proliferation of human PBMCs (Cell-Titer Glo 2.0); format: cell-based; conditions: Compound 1 0.01 μM to 10 μM, 10 days; FIG. 8B
Description: Next, the proliferation of PMBCs was examined following treatment with DHX9 inhibitor using the following assay.
Human PBMCs were thawed from a frozen cryotube in a 37° C. water bath and transferred to a flask with medium X-Vivo 15 supplemented with 5% Fetal Bovine Serum (FBS), 1% PenStrep, and 1% Glutamax. Flasks were incubated at 37 C for 30 minutes. PBMCs were harvested from flask and counted. PBMCs were diluted in medium and added to 96 well plates at 100,000 PBMCs per well. A stimulus mixture containing IL-15 at 1 ng/well, IL-21 at 5 ng/well, and CD40L at 5 ng/well was added to each well. Test compounds were prepared in DMSO stock solution and serially diluted. Compound (0.1% final DMSO concentration) was added to each well. DMSO was used as a negative control (high control, HC) and staurosporine was used a positive control (low control, LC). Plates were incubated at 37 C for 0, 2, 4, 6, 8, 10 days. Every other day, medium was replenished with stimulus and diluted compounds.
At each CTG time point, plate was removed from incubator and Cell-Titer Glo 2.0 reagent was added to each well according to manufacturer's (Promega) protocol and detected on an Envision. The inhibition activity was calculated following the formula below:
% Inhibition=100×(ReadoutHC−ReadoutSample)/(ReadoutHC−ReadoutLC)
PBMCs were exposed to Compound 1 at concentrations ranging from 0.01 μM to 10 μM for 10 days. […]

| Structure (SMILES) | induction of AKR1A1 circRNA (Alu-mediated) (DHX9) | induction of BRIP1 circRNA (Alu-mediated) (DHX9) | induction of DKC1 circRNA (Alu-mediated) (DHX9) | induction of SETD3 circRNA (non-Alu-mediated) (DHX9) | proliferation of PBMCs (human PBMCs) |
| --- | --- | --- | --- | --- | --- |
| CS(=O)(=O)Nc1cccc(NC(=O)c2cc(Br)cs2)c1 [Compound 7, 4-bromo-N-(3-methanesulfonamidophenyl)thiophene-2-carboxamide] | induced | induced | induced | no induction of SETD3 cirRNA was observed |  |
| CN[C@@H]1C[C@H]2O[C@@](C)([C@@H]1OC)n1c3ccccc3c3c4c(c5c6ccccc6n2c5c31)C(=O)NC4 [staustoporine, staurosporine, reference compound] |  |  |  |  | inhibited proliferation of PBMCs |
